Results on 21 compounds are retold here after US8759366B2, “Aminopyrimidines as SYK inhibitors” (Merck Sharp & Dohme Corp., priority 2009, dated 2014).

Read-outs that look alike come from different tables or passages of the source.

In experiment [1] the target is T1, recombinant human SYK (GST-hSYK fusion protein) (Homo sapiens (Human), UniProt P43405). In words: biochemical.
Text: (§1) Homogeneous Time-Resolved Fluorescence (HTRF) Assay for the Recombinant Human SYK Enzyme:
The target of experiment [2] is T1, recombinant human SYK (GST-hSYK fusion protein). The note with it: read-out: rhSYK Activity.
Text: as §1
Setting [3] is: Table 119, HTRF assay, IC50 class symbols.
[4] abbreviates: recombinant human SYK, HTRF assay, class symbols.

For `Cc1cc(Nc2nccc(C(F)(F)F)n2)cc(-c2cnc([C@@](O)(CO)c3ccc(C(=O)O)cc3)s2)c1` [145(B), (S)4-{1,2-dihydroxy-1-[5-(3-methyl-5-{[4-(trifluoromethyl)pyrimidin-2-yl]amino}phenyl)-1,3-thiazol-2-yl]ethyl}benzoic acid], in experiment [1], the IC50 is under 100 nM. Turning to `COc1ccnc(Nc2cc(C)cc(-c3cnc([C@]4(F)CC[C@@H](C(=O)O)CC4)s3)c2)n1` [Example 113D-13], the IC50 in experiment [1] is under 100 nM. Take `CC(C)(C)OC(=O)N1CC(Oc2ccnc(Nc3cc(N)cc(-c4cnc(C5(O)CCC5)s4)c3)n2)C1` [Example 109-10]: the IC50 in experiment [1] lay within 100 to 1000 nM.

For `CC(C)(c1ncc(-c2cc(F)cc(Nc3nccc(C(F)(F)F)n3)c2)s1)S(N)(=O)=O` [2-[5-(3-fluoro-5-{[4-(trifluoromethyl)pyrimidin-2-yl]amino}phenyl)-1,3-thiazol-2-yl]propane-2-sulfonamide], the IC50 in experiment [1] stood at 818 nM. Same read-out and setting: next, `COC(=O)C(C)(C)Cc1ncc(-c2cc(C)cc(Nc3nccc(C(F)(F)F)n3)c2)s1` [Example 77, Methyl 2,2-dimethyl-3-[5-(3-methyl-5-{[4-(trifluoromethyl)pyrimidin-2-yl]amino}phenyl)-1,3-thiazol-2-yl]propanoate]: under 100 nM. On the same count and under the same terms, next, `CC(=O)Nc1cc(Nc2nccc(OC3CCN(C(C)=O)CC3)n2)cc(-c2cnc(C3(O)CCC3)s2)c1` [Example 109-3]: under 100 nM. With `Cc1cc(Nc2nccc(C(F)(F)F)n2)cc(-c2cnc(C3(O)CC(C(=O)O)C(C)(C)C3)s2)c1` (stereo not drawn) [Example 33B-3], the IC50 in experiment [2] (Table 33B) was under 100 nM.

As for `Cc1cc(Nc2nccc(C(F)(F)F)n2)cc(-c2cnc(C3(O)CCC(C(=O)NCc4cnoc4)CC3)s2)c1` (stereo not drawn) [Example 119-41], in experiment [2] (setting [3]), the IC50 is under 100 nM.

For `Cc1cc(Nc2nccc(C(F)F)n2)cc(-c2cnc(C3(O)CCNC(=O)CC3)s2)c1` (stereo not drawn) [113C-7], in experiment [2] (Table 113C), the IC50 was under 100 nM.

As for `Cc1cc(Nc2nccc(C(C)C)n2)cc(-c2cnc(C3(O)CCCN(C(=O)OC(C)(C)C)CC3)s2)c1` (single isomer, unassigned) [113C-21], the IC50 in experiment [2] (Table 113C) fell in the range of 1000 to 10000 nM. As to `Cc1cc(Nc2nccc(C(F)(F)F)n2)cc(-c2cnc(C3(O)CCC(C(=O)NO)CC3)s2)c1` (stereo not drawn) [Example 119-16], the IC50 in experiment [2] (setting [3]) was under 100 nM.

Consider `Cc1cc(Nc2nccc(C(C)F)n2)cc(-c2cnc(C3(O)CCNC(=O)CC3)s2)c1` (single isomer, unassigned) [113C-4], for which, in experiment [2] (Table 113C), the IC50 was under 100 nM. With `Cc1cc(Nc2nccc(C(F)(F)F)n2)cc(-c2cnc(C3(O)CCCC(c4ccc(C(=O)O)cc4)C3)s2)c1` (single isomer, unassigned) [Example 33B-15], the IC50 in experiment [2] (Table 33B) is under 100 nM. Regarding `Cc1cc(Nc2ncc(Cl)c(C)n2)cc(-c2cnc(C3(O)CCNC(=O)CC3)s2)c1` (stereo not drawn) [113C-5], the IC50 in experiment [2] (Table 113C) is under 100 nM. As to `Cc1cc(Nc2ncc(F)c(C3CC3)n2)cc(-c2cnc(C3(O)CCC(C(=O)O)CC3)s2)c1` (stereo not drawn) [33A-2], in experiment [2] (Table 33-A), the IC50 was under 100 nM. `O=C(NC1CC1)C1CCC(c2ncc(-c3cccc(Nc4nccc(C(F)(F)F)n4)c3)s2)CC1` (stereo not drawn) [Example 21-13]: in experiment [2] (Table 21), the IC50 is under 100 nM. On to `Cc1cc(Nc2nccc(C(F)(F)F)n2)cc(-c2cnc(C3(O)CCC(C(=O)O)OC3)s2)c1` (single isomer, unassigned) [Example 113D-12], for which the IC50 in experiment [2] (Table 113D, lower part (Structure)) is under 100 nM. In the case of `Cc1cc(Nc2nccc(C(C)C)n2)cc(-c2cnc(C3(O)CCCN(C(=O)c4cnnn4C)CC3)s2)c1` (stereo not drawn) [Example 54D-17], the IC50 in experiment [2] (setting [4]) was under 100 nM.

`COC(=O)c1cccc(N2CCC(O)(c3ncc(-c4cc(C)cc(Nc5nccc(C(F)(F)F)n5)c4)s3)C2)c1` (stereo not drawn) [Example 54B-35]: the IC50 in experiment [2] (setting [4]) was under 100 nM.

Turning to `Cc1cc(Nc2nccc(OC(C)C)n2)cc(-c2cnc(C3(O)CCNC(=O)CC3)s2)c1` (stereo not drawn) [113C-10], in experiment [2] (Table 113C), the IC50 was under 100 nM. For `Cc1cc(Nc2nccc(C)n2)cc(-c2cnc(C3(O)CCC(C(=O)O)C(C)C3)s2)c1` (single isomer, unassigned) [Example 33B-33], the IC50 in experiment [2] (Table 33B) was under 100 nM.
